Results: article PMC11996864, “A small-molecule inhibitor of BCL10-MALT1 interaction abrogates progression of diffuse large B cell lymphoma” (The Journal of Clinical Investigation, 2025)
Values joined by “and” are separate entries in the source; they are usually repeats but may differ in a detail not shown here. Identical values can stand only once.

Tests used:
[1] = system: RelB cleavage in TMD8 cells; experiment: Constitutive RelB cleavage, Western blot; format: cell-based, human; settings: result in words
Description: (§1) Western blot analysis of RelB and N4BP1 cleavage was used to test the effect of small molecules on MALT1 protease activity. To this end, 3 million Jurkat T cells were pretreated with compounds for 24 hours in serum-free media, and then 5 μM MG-132 was added for 1 hour before stimulation with CD3/CD28 (Stemcell Technologies, catalog 10971), and lysed in RIPA buffer (Millipore, catalog 20-188) with protease and phosphatase inhibitor cocktail (Pierce, catalog 78446). IKKα/β phosphorylation and IκBα phosphorylation were used as measures of MALT1 scaffolding activity, while ERK1/2 phosphorylation was used as a control. Two million Jurkat T cells were treated with 1 μM M1i-124, 1 μM M1i-124d1, or DMSO in serum-free media for 16 hours, stimulated with CD3/CD28 for 0, 5, 10, or 20 minutes, and then immediately lysed in RIPA buffer with protease and phosphatase inhibitors. For experiments evaluating RelB cleavage and phosphorylation of IκBα in TMD8 cells, cells were treated with compounds for 24 hours in media containing 5% FBS. For RelB Western blot analysis, 5 μM MG-132 (Cell Signaling Technology, catalog 2194s) was added 4 hours before lysis in RIPA lysis buffer with protease/phosphatase inhibitors.

[2] = system: OCI-Ly3 cells; experiment: cells; set-up: species or system TMD8 or OCI-Ly3; Inhibition of spontaneous IL-10 secretion from ABC-DLBCL cells, human IL-10 ELISA of supernatants; settings: Homo sapiens, OCI-Ly3, 20 h; IL-10 secretion; read-out: IC50 (µM) IL-10 inhibition
Description: Cytokine ELISAs. Cytokines in cell culture supernatants were measured 20-24h after treatment with 0, 0.01, 0.03, 0.1, 0.3, 1, or 3 µM of compounds using the following ELISA kits according to the manufacturer’s instructions: Human IL-2 ELISA (BioLegend Cat# 431804), Human IL-6 ELISA (BioLegend Cat# 430504), and Human IL-10 ELISA (BioLegend Cat# 430604). TMD8 and OCI-Ly3 cells were treated with specific doses of compounds in serum-free media for 20 hours. Jurkat T cells were pretreated with specific doses of compounds for 8 hours in serum-free media, then stimulated with PMA/ionomycin for 16 hours prior to the collection of supernatants. Mouse splenocytes were isolated from spleens of C57/BL6 mice by passing spleens through a 70 micron filter followed by red blood cell lysis using ACK lysing buffer (Quality Biologics, Cat# 118-156-101). […] Supernatant was collected at 24 hours and mouse IL-2 levels were analyzed via ELISA (R&D Systems, Cat# DY402-05). IL-6 and IL-10 are NF-κB–induced cytokines that promote the proliferation and survival of malignant B cells through both autocrine and paracrine mechanisms ([44]), and are negative prognostic factors in ABC-DLBCL ([45], [46]). ABC-DLBCL cell lines spontaneously secrete substantial levels of IL-6 and IL-10, whereas GCB-DLBCL cell lines express only a negligible amount of these cytokines ([24]). […] The IC50 for inhibition of cytokine secretion by each compound in each cell line is reported in Supplemental Table 1.  Figure 4 M1i-124 and M1i-124d1 inhibit MALT1 protease and scaffolding functions, and MALT1-dependent cytokine secretion, in ABC-DLBCL cells. (A and B) Effect of 1 μM compound pretreatment on constitutive RelB cleavage (A) and IκB phosphorylation (B) within TMD8 cells. Representative Western blots are shown along with quantification (mean ± SEM; n = 2). (C) IL6 and IL10 mRNA levels in TMD8 cells treated with 1 μM M1i-124 or M1i-124d1 (mean ± SEM; n = 6). […] Statistical analyses were performed using 1-way ANOVA and Dunnett’s multiple-comparison test. **P < 0.01, ***P < 0.001, ****P < 0.0001.

[3] = system: OCI-Ly3 cells; experiment: IL6 and IL10 mRNA, qRT-PCR; format: cell-based, human; settings: for IL6 and IL10 mRNA levels: OCI-Ly3, 1 μM, 24 hours, result in words; for IL6 mRNA levels (normalized) / IL10 mRNA levels (normalized): Suppl Fig. 5C
Description: Total RNA extraction from cell lines was performed using RNeasy Plus Mini Kit (Qiagen, Cat# 74136). […]
Kit. RNA was transcribed into cDNA using High-Capacity cDNA Reverse Transcription Kit (Applied Biosystems, Cat# 4368814) according to manufacturer’s instructions. RT-PCR was performed using TaqMan Universal PCR Master Mix (Applied Biosystems, Cat# 4304437) and run on a StepOnePlus Real-Time PCR machine (Applied Biosystems). The following probes from ThermoFisher Scientific were used for qRT-PCR: IL2 TaqMan probe Hs00174114, IL6 TaqMan

[4] = system: OCI-Ly3 cells; experiment: Cell proliferation, trypan blue cell count; format: cell-based, human; settings: OCI-Ly3, single 1 μM dose, 12 days, result in words
Source text: Cell proliferation, viability, and apoptosis assays. Starting with ~20,000 DLBCL cells in 5% FBS
at day 0, cell number was counted using the trypan blue dye exclusion method with Vi-CELL cell

[5] = system: ERK1/2 phosphorylation in Jurkat T cells; experiment: ERK phosphorylation after CD3/CD28 stimulation (MALT1-independent control); format: cell-based, human; settings: for ERK phosphorylation: result in words; for pERK 1/2 (normalized): Jurkat, 1 μM;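 on pERK 1/2 (normalized): Phosphorylated ERK1/2 relative to total ERK1/2 protein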
Description: as §1, with “Two million Jurkat T cells were treated with 1 μM M1i-124, 1 μM M1i-124d1, or DMSO in serum-free media for 16 hours, stimulated with CD3/CD28 for 0, 5, 10, or 20 minutes, and then immediately lysed in RIPA buffer with protease and phosphatase inhibitors.” left out

O=S(=O)(NCc1ccc2c(c1)OCO2)c1ccc(Cc2ccc(S(=O)(=O)NCc3ccc4c(c3)OCO4)cc2)cc1 [M1i-124]
RelB cleavage in TMD8 cells [1]: markedly reduced cleavage of RelB
IC50 [2]: 0.7 µM
IL6 and IL10 mRNA levels [3]: significantly decrease IL6 and IL10 mRNA levels
IL6 mRNA levels (normalized) [3]: 0.63 and 0.57 and 0.56 and 0.54 and 0.48 and 0.61
IL10 mRNA levels (normalized) [3]: 0.7074 and 0.77 and 0.73 and 0.8 and 0.4913 and 0.4249 and 0.7438
expansion of culture (proliferation) [4]: significant reduction in the expansion
ERK phosphorylation [5]: unaffected

COc1ccc(CNS(=O)(=O)c2ccc(Cc3ccc(S(=O)(=O)NCc4ccc(OC)cc4)cc3)cc2)cc1 [M1i-124d1]
RelB cleavage in TMD8 cells [1]: markedly reduced cleavage of RelB
IC50 [2]: 2.2 µM
IL6 and IL10 mRNA levels [3]: significantly decrease IL6 and IL10 mRNA levels
IL6 mRNA levels (normalized) [3]: 0.61 and 0.76 and 0.58 and 0.67 and 0.68
IL10 mRNA levels (normalized) [3]: 0.5473 and 0.5 and 0.74 and 0.4125 and 0.4002 and 0.6402
expansion of culture (proliferation) [4]: significant reduction in the expansion
pERK 1/2 (normalized) ([5]; CD3/CD28 5 min): 1.155 and 0.776 and 1.27 and 0.7498 and 0.998
pERK 1/2 (normalized) ([5]; CD3/CD28 10 min): 1.2674 and 0.9152 and 1.197 and 0.7135 and 0.9691
pERK 1/2 (normalized) ([5]; CD3/CD28 15 min): 1.05 and 0.8514 and 1.066 and 0.6774 and 0.9099
pERK 1/2 (normalized) ([5]; CD3/CD28 20 min): 0.8015 and 0.6878 and 0.9541 and 0.7317 and 0.9634
ERK phosphorylation [5]: unaffected
